This is an account of results in article PMC8533333, “Melatonin Analogues Potently Inhibit MAO-B and Protect PC12 Cells against Oxidative Stress” (Antioxidants, 2021).

For data set [1], the target named is T1, Human recombinant MAO-B (hMAO-B) (Homo sapiens, UniProt P27338).
T1 construct: purchased Sigma Aldrich; host or cells: insect cells
T1 sequence (P27338 1-520): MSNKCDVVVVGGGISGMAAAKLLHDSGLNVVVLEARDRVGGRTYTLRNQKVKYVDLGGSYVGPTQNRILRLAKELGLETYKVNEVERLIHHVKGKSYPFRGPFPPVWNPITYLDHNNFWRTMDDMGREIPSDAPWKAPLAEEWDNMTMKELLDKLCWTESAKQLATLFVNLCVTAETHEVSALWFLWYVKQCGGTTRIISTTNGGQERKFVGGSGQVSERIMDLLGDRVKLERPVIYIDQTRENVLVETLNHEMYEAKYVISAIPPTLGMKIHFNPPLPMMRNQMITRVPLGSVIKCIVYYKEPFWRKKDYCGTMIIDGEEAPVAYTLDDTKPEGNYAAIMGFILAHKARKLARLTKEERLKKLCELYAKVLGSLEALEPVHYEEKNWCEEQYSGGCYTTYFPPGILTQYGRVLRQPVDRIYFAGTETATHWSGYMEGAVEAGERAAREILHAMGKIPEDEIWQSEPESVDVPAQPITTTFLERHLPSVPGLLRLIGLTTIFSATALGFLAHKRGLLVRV
The data set is described as follows: MAO-B enzyme assay (Amplex Red, resorufin fluorescence). The format is biochemical. To be noted: for inhibition at 10 µM: single dose 10 µM. On the procedure:
Biological evaluation of the synthesized melatonin derivatives over both MAO-A and MAO-B was performed as reported previously. A detailed description of the protocol is in the Supplementary Materials.
First, the synthesized melatonin analogues (3a–x) were biologically evaluated over an MAO-B recombinant enzyme. The experiment was performed using Amplex® Red reagent technology. This technology offers quantitative enzyme activity sensitive detection, a wider dynamic range, and fluorescence emission outside the range of compound autofluorescence (if any). The Amplex® Red reagent is a colorless substrate that reacts with H2O2 in a 1:1 stoichiometry to produce a highly fluorescent resorufin; therefore, the induced inhibitory effects of the melatonin analogues over MAO-B were examined via spectrophotometry where the fluorescence rate of resorufin dye formation was measured.
Accordingly, compounds 3n, 3r, and 3u–w were further tested to determine their IC50 values over MAO-B in triplicate from the dose–response inhibition curves using Sigma-Plot software 13.0.
6. Materials and methods of monoamine oxidase (MAO) enzyme assay
The inhibitory activity of MAO-A, B enzyme of the compounds was evaluated based on previously described method. The MAO activity was measured in relative fluorescence units (RFU) evoked by peroxidase-catalyzed oxidation of Amplex Red® to resorufin, in which H2O2 generated by MAO reaction was used as the […]. Human recombinant MAO-A (hMAO-A) and MAO-B (hMAO-B) enzyme expressed in insect cells were obtained from Sigma Aldrich. The 2 μL of test compound in DMSO (final concentration: 1 nM – 10 μM) was treated with 98 μL of hMAO enzyme solution in 50 mM sodium phosphate buffer (pH 7.4, final protein amounts: ~1.25 μg protein/well for MAO-A and ~2.5 μg protein/well for MAO -B) on 96-well black plate and incubated for 15 min at 37 °C. Then 100 μL of reaction working solution which is mixed solution of 400 μM Amplex Red® (Cayman, final concentration: 200 μM), 2 U/mL horseradish peroxidase ( Sigma-Aldrich, final concentration: 1 U/mL) and 2 mM substrate ( p-tyramine for MAO -A, benzylamine for MAO -B, Sigma-Aldrich, final concentration: 1 mM) in 50 mM sodium phosphate buffer (pH 7.4) were added and incubated for 20 min at 37 °C in the dark. The fluorescent intensity was quantified using a microplate reader (SpectraMax®i3, Molecular Device) with an excitation at 545 nm and an emission at 590 nm. The 50% inhibitory concentrations (IC50) of compounds were determined as the mean ± S.E.M. in triplicate from the dose-response inhibition curves using SigmaPlot® 13.0. […]

Structures are written as SMILES. Bounds are passed on as bounds.

The term inhibition denotes the change of the read-out against control, counted positive when it falls. As for `O=C(Nc1ccc2[nH]ccc2c1)c1ccccc1` [3a, N-(1H-indol-5-yl)benzamide], the inhibition at 10 µM in data set [1] turned out to be 14.9 ± 0.8%. The term melting point denotes the temperature, or range, at which the solid turns liquid. With `O=C(Nc1ccc2[nH]ccc2c1)c1ccccc1Br` [3b, 2-Bromo-N-(1H-indol-5-yl)benzamide], the melting point was 231 to 233 °C. Besides, the inhibition at 10 µM in data set [1] came out at 0.27 ± 0.81%. As to `O=C(Nc1ccc2[nH]ccc2c1)c1ccc(Br)cc1` [3c, 4-Bromo-N-(1H-indol-5-yl)benzamide], the melting point was in the range of 209 to 210 °C. Further, the inhibition at 10 µM in data set [1] amounted to 37.1 ± 0.7%.

With `O=C(Nc1ccc2[nH]ccc2c1)c1ccc(Cl)cc1Cl` [3d, 2,4-Dichloro-N-(1H-indol-5-yl)benzamide], the melting point was in the range of 161 to 162 °C. Also, the inhibition at 10 µM in data set [1] worked out at 22.9 ± 0.7%.

`O=C(Nc1ccc2[nH]ccc2c1)c1cc([N+](=O)[O-])cc([N+](=O)[O-])c1` [3e, N-(1H-indol-5-yl)-3,5-dinitrobenzamide]: the inhibition at 10 µM in data set [1] turned out to be 2.75 ± 0.2%. Compound `O=C(Nc1ccc2[nH]ccc2c1)c1cccc([N+](=O)[O-])c1` [3f, N-(1H-indol-5-yl)-3-nitrobenzamide] came in with a melting point of 214 to 215 °C. Also, the inhibition at 10 µM in data set [1] is 54.25 ± 0.37%. Turning to `O=C(Nc1ccc2[nH]ccc2c1)c1ccc([N+](=O)[O-])cc1` [3g, N-(1H-indol-5-yl)-4-nitrobenzamide], the melting point is 262 to 264 °C. In addition, the inhibition at 10 µM in data set [1] came to 61 ± 0.69%. The compound `O=C(Nc1ccc2[nH]ccc2c1)c1c(F)cccc1F` [3h, 2,6-Difluoro-N-(1H-indol-5-yl)benzamide] gave a melting point of 236 to 237 °C. For the same compound, the inhibition at 10 µM in data set [1] was -0.02 ± 0.26%. On to `O=C(Nc1ccc2[nH]ccc2c1)c1cccc(F)c1` [3i, 3-Fluoro-N-(1H-indol-5-yl)benzamide], for which the melting point was 166 to 168 °C. Besides, the inhibition at 10 µM in data set [1] was found to be 35.3 ± 0.76%. On to `O=C(Nc1ccc2[nH]ccc2c1)c1ccc(F)cc1` [3j, 4-Fluoro-N-(1H-indol-5-yl)benzamide], for which the inhibition at 10 µM in data set [1] is 58.3 ± 1.02%.

On to `O=C(Nc1ccc2[nH]ccc2c1)c1ccccc1F` [3k, 2-Fluoro-N-(1H-indol-5-yl)benzamide], for which the melting point lay in the range of 179 to 181 °C. In data set [1], the inhibition at 10 µM turned out to be 37.86 ± 0.33%.

Compound `O=C(Nc1ccc2[nH]ccc2c1)c1ccc(F)cc1C(F)(F)F` [3l, 4-Fluoro-N-(1H-indol-5-yl)-2-(trifluoromethyl)benzamide] showed a melting point of 153 to 154 °C. For the same compound, in data set [1], the inhibition at 10 µM worked out at 1.49 ± 0.26%. Taken in the same sequence, the figures for `N#Cc1cccc(C(=O)Nc2ccc3[nH]ccc3c2)c1` [3m, 3-Cyano-N-(1H-indol-5-yl)benzamide] were 188 to 189 °C and 8.33 ± 0.59%. As for `O=C(Nc1ccc2[nH]ccc2c1)c1ccccc1Cl` [3o, 2-Chloro-N-(1H-indol-5-yl)benzamide], the inhibition at 10 µM in data set [1] amounted to 2.39 ± 0.31%.

For the compound `O=C(Nc1ccc2[nH]ccc2c1)c1ccc(Cl)cc1` [3p, 4-Chloro-N-(1H-indol-5-yl)benzamide], in data set [1], the inhibition at 10 µM turned out to be 57.98 ± 0.07%. On to `CC(C)(C)c1ccc(C(=O)Nc2ccc3[nH]ccc3c2)cc1` [3q, 4-(Tert-butyl)-N-(1H-indol-5-yl)benzamide], for which the melting point was in the range of 189 to 190 °C. Also, in data set [1], the inhibition at 10 µM came to 50.01 ± 0.04%. Compound `O=C(Nc1ccc2[nH]ccc2c1)c1cccc(OC(F)(F)F)c1` [3s, N-(1H-indol-5-yl)-3-(trifluoromethoxy)benzamide] returned a melting point of 130 to 132 °C. Moreover, the inhibition at 10 µM in data set [1] was 68.34 ± 0.25%.

In turn, `O=C(Nc1ccc2[nH]ccc2c1)c1ccc(OC(F)(F)F)cc1` [3t, N-(1H-indol-5-yl)-4-(trifluoromethoxy)benzamide] displayed a melting point of 195 to 196 °C. Also, the inhibition at 10 µM in data set [1] amounted to 63.23 ± 0.45%. In turn, `O=C(Nc1ccc2[nH]ccc2c1)c1c(Cl)cccc1Cl` [3x, 2,6-Dichloro-N-(1H-indol-5-yl)benzamide] showed a melting point of 221 to 223 °C. In addition, the inhibition at 10 µM in data set [1] came out at 0.89 ± 0.31%. For `C#CCN[C@@H]1CCc2ccccc21` [rasagiline, reference compound], the “Selectivity Index (SI)” value in data set [1] (IC50 (MAO-A)/IC50 (MAO-B)) is reported as greater than 50.
